Counter-ions that a name gives are not always drawn. Where only a bound is given, the exact number is not on record here.

In this experiment the target is RIPK1 (recombinant GST-RIPK1 kinase domain, residues 1-327) (Homo sapiens (Human), UniProt Q13546). Put plainly: RIPK1-ADP-Glo Enzymatic Assay. It counts as biochemical. The note with it: ADP-Glo; 25 nM GST-RIPK1, 300 μM ATP; assay lower limit ~25 nM; read-out: RIPK1 V0 Ec50. The gist of the method:
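Luminescent ADP-Glo readout of ATP-to-ADP conversion. Conditions: 25 nM enzyme, 300 μM ATP, 3 μM dephospho-MBP, pH 7.3 HEPES buffer with 20 mM MgCl2; 30 min compound pre-incubation, 150 min reaction. EC50 via four-parameter sigmoidal regression; assay floor ~25 nM.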

Chain of RIPK1 (recombinant GST-RIPK1 kinase domain, residues 1-327) (Q13546 1-327): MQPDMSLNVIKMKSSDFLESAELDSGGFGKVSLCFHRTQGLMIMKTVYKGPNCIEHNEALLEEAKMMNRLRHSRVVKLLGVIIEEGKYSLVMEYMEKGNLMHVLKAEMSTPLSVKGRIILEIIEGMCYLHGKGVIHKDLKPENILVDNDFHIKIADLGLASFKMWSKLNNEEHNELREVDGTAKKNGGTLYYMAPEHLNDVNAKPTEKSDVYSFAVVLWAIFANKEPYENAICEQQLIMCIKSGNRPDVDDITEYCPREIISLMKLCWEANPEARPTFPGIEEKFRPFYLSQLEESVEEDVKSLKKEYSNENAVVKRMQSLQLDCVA

Consider `O=C1N2[C@@H](CC[C@H]2c2ccccc2)OC12CCN(c1cc(Cl)nc(C3CCCCC3)n1)CC2` [Example 4.34, (5′S,7a′R)-1-(6-chloro-2-cyclohexylpyrimidin-4-yl)-5′-phenyltetrahydro-3′H-spiro[piperidine-4,2′-pyrrolo[2,1-b] [1,3]oxazol]-3′-one], for which the EC50 was 83 nM. For `COc1nc(N2CCC3(CC2)O[C@@H]2CC[C@@H](c4cc(F)cc(F)c4)N2C3=O)ncc1C` [Example 4.59, (5′S,7a′R)-5′-(3,5-difluorophenyl)-1-(4-methoxy-5-methylpyrimidin-2-yl)tetrahydro-3′H-spiro[piperidine-4,2′-pyrrolo[2,1-b] [1,3]oxazol]-3′-one], the EC50 turned out to be 149 nM. The same measure for `O=C(c1ccn(C2CC2)n1)N1CCC2(CC1)O[C@@H]1CC[C@@H](c3cc(F)cc(F)c3)N1C2=O` [Example 5.52, (5′S,7a′R)-1-(1-cycloprop-yl-1H-pyrazole-3-carbon-yl)-5′-(3,5-difluorophen-yl)tetrahydro-3′H-spiro [piperidine-4,2′-pyrrolo-[2,1-b]oxazol]-3′-one]: 88.8 nM; for `O=C(c1cocn1)N1CCC2(CC1)O[C@@H]1CC[C@@H](c3cc(F)cc(F)c3)N1C2=O` [Example 5.30, (5′S,7a′R)-5′-(3,5-difluoro-phenyl)-1-(1-oxazole-4-carbonyl)tetrahydro-3′H-spiro[piperidine-4,2′-pyrrolo[2,1-b]oxazol]-3′-one]: 28.4 nM.

Consider `O=C1N2[C@@H](CC[C@H]2c2cc(F)cc(F)c2)OC12CCN(c1ccc(OCC3CCO3)c3ccnn13)CC2` (mixture of isomers) [Example 19.5, (5′S,7a′R)-5′-(3,5-difluorophenyl)-1-(4-(((R and S)-oxetan-2-yl)methoxy)pyrazolo [1,5-a]pyridin-7-yl)tetrahydro-3′H-spiro[piperidine-4,2′-pyrrolo[2,1-b]oxazol]-3′-one, TFA salt], for which the EC50 stood at 208 nM. Next, `O=C1N2[C@@H](CC[C@H]2c2ccccc2)OC12CCN(c1ccc(-c3cc(O)no3)cn1)CC2` [Example 4.193, (5′S,7a′R)-1-[5-(3-hydroxy-1,2-oxazol-5-yl)pyridin-2-yl]-5′-phenyltetrahydro-3′H-spiro[piperidine-4,2′-pyrrolo[2,1-b] [1,3]oxazol]-3′-one]: below 25 nM; `O=C(c1nc(N2CCC3(CC2)O[C@@H]2CC[C@@H](c4cc(F)cc(F)c4)N2C3=O)ncc1F)N1CC(C(F)F)C1` [Example 7.8, (5′S,7a′R)-1-{4-[3-(difluoromethyl)azetidine-1-carbonyl]-5-fluoropyrimidin-2-yl}-5′-(3,5-difluorophenyl)tetrahydro-3′H-spiro[piperidine-4,2′-pyrrolo[2,1-b][1,3]oxazol]-3′-one]: below 25 nM. Next, `O=C1N2[C@@H](CC[C@H]2c2cc(F)cc(F)c2)OC12CCN(c1cc(-c3cnn(C(F)F)c3)ncn1)CC2` [Example 10.1, (5′S,7a′R)-1-(6-(1-(difluoromethyl)-1H-pyrazol-4-yl)pyrimidin-4-yl)-5′-(3,5-difluorophenyl) tetrahydro-3′H-spiro[piperidine-4,2′-pyrrolo[2,1-b]oxazol]-3′-one]: below 25 nM. Next, `N#Cc1ncc(N2CCC3(CC2)O[C@@H]2CC[C@@H](c4cc(F)cc(F)c4)N2C3=O)cn1` [Example 4.45, 5-[(5′S,7a′R)-5′-(3,5-difluorophenyl)-3′-oxotetrahydro-1H,3′H-spiro[piperidine-4,2′-pyrrolo[2,1-b] [1,3]oxazol]-1-yl]pyrimidine-2-carbonitrile]: 250 nM; `NC(=O)c1ccc(N2CCC3(CC2)O[C@@H]2CC[C@@H](c4cccc(F)c4)N2C3=O)n2ncnc12` [Example 4.152, 5-[(5′S,7a′R)-5′-(3-fluorophenyl)-3′-oxotetrahydro-1H,3′H-spiro[piperidine-4,2′-pyrrolo[2,1-b] [1,3]oxazol]-1-yl][1,2,4]triazolo[1,5-a] pyridine-8-carboxamide]: below 25 nM; `COc1cc(N2CCC3(CC2)O[C@@H]2CC[C@@H](c4cc(F)cc(F)c4)N2C3=O)ncn1` [Example 4.11, (5′S,7a′R)-5′-(3,5-difluorophenyl)-1-(6-methoxypyrimidin-4-yl)tetrahydro-3′H-spiro[piperidine-4,2′-pyrrolo[2,1-b] [1,3]oxazol]-3′-one]: below 25 nM. Regarding `O=C(c1ccccc1)N1CCC2(CC1)O[C@@H]1CC[C@@H](c3ccccc3)N1C2=O` [Example 1.3, (5′S,7a′R)-1-(benzenecarbonyl)-5′-phenyltetrahydro-3′H-spiro[piperidine-4,2′-pyrrolo[2,1-b] [1,3]oxazol]-3′-one], the EC50 was below 25 nM. The same measure for `Cc1nc(C(=O)N2CCC3(CC2)O[C@@H]2CC[C@@H](c4cc(F)cc(F)c4)N2C3=O)no1` [Example 6.20, (5′S,7a′R)-5′-(3,5-difluorophenyl)-1-(5-methyl-1,2,4-oxadi-azole-3-carbonyl)-tetrahydro-3′H-spiro [piperidine-4,2′-pyrrolo[2,1-b][1,3]oxazol]-3′-one]: 136 nM. The same measure for `O=C1N2[C@@H](CC[C@H]2c2ccccc2)OC12CCN(c1cccn3nccc13)CC2` [Example 4.150, (5′S,7a′R)-5′-phenyl-1-(pyrazolo[1,5-a]pyridin-4-yl)tetrahydro-3′H-spiro[piperidine-4,2′-pyrrolo[2,1-b] [1,3]oxazol]-3′-one]: 34.4 nM. Next, `Cc1ncc([C@@H]2CC[C@H]3OC4(CCN(c5ccc(C#N)c(C)n5)CC4)C(=O)N32)cc1F` [Example 4.46, 6-[(5′S,7a′R)-5′-(5-fluoro-6-methylpyridin-3-yl)-3′-oxotetrahydro-1H,3′H-spiro[piperidine-4,2′-pyrrolo[2,1-b] [1,3]oxazol]-1-yl]-2-methylpyridine-3-carbonitrile]: 46.9 nM. Consider `O=C1N2[C@@H](CC[C@H]2c2ccccc2F)OC12CN(c1ncco1)C2` [Example 4.272, (5′S,7a′R)-5′-(2-fluorophenyl)-1-(1,3-oxazol-2-yl)tetrahydro-3′H-spiro[azetidine-3,2′-pyrrolo[2,1-b] [1,3]oxazol]-3′-one], for which the EC50 is 931 nM. For the compound `O=C1N2[C@@H](CC[C@H]2c2cnccn2)OC12CCN(c1ccnc3c(F)cnn13)CC2` [Example 4.140, (5′S,7a′R)-1-(3-fluoropyrazolo[1,5-a]pyrimidin-7-yl)-5′-(pyrazin-2-yl)tetrahydro-3′H-spiro[piperidine-4,2′-pyrrolo[2,1-b] [1,3]oxazol]-3′-one], the EC50 worked out at 25.6 nM. With `O=C(c1ccccc1)N1CCC2(CC1)O[C@@H]1CC[C@@H](c3ccc4sccc4c3)N1C2=O` [Example 17.2, (5′S,7a′R)-5′-(benzo[b]thiophen-5-yl)-1-benzoyltetrahydro-3′H-spiro[piperidine-4,2′-pyrrolo[2,1-b]oxazol]-3′-one], the EC50 was 26.1 nM. On to `COc1ccc(F)c(C(=O)N2CCC3(CC2)O[C@@H]2CC[C@@H](c4ccccc4)N2C3=O)c1` [Example 6.149, (5′S,7a′R)-1-(2-fluoro-5-methoxybenzene-1-carbonyl)-5′-phenyl-tetrahydro-3′H-spiro [piperidine-4,2′-pyrrolo[2,1-b][1,3]oxazol]-3′-one], for which the EC50 was below 25 nM.

By EC50 is commonly meant the concentration at which the effect is half-maximal.

The values above are taken from patent publication US12180226B2, “Spirotricycle RIPK1 inhibitors and methods of uses thereof” (Merck Sharp & Dohme LLC, priority 2021, dated 2024).
